The record followed here is patent US8846951B2 (AbbVie Inc., priority 2009, dated 2014).

pEC50: −log10 of the molar value. Where two headings read alike, the source gives them in different places.

The target in experiment [1] is T1, 5HT2C receptors (Homo sapiens, UniProt P28335).
T1 sequence (P28335 33-458): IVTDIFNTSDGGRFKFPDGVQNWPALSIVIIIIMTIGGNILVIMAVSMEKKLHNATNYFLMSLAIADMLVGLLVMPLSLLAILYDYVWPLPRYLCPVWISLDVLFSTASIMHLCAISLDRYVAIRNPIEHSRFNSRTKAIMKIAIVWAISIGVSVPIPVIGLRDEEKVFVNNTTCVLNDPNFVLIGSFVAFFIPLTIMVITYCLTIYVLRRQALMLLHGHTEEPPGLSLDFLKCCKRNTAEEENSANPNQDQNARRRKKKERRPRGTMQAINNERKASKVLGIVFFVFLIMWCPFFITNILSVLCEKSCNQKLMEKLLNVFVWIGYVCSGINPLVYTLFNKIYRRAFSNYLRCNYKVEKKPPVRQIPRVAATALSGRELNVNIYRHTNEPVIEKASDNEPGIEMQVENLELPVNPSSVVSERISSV
Kind of experiment: Human 5-HT2C functional high throughput screening assay in CHO-K1 cells (calcium flux). Also on record: expressed in transfected cells; host or cells: CHO-K1 cells. The format is cell-based. Conditions: for Emax: CHO-K1, 5-HT2C, maximum functional response as percentage relative to the effect of serotonin; for pEC50: CHO-K1 cells, calcium flux; call rule not given here. The gist of the method:
(§1)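 Serum-starved CHO-K1 cells carrying the receptor; Ca4 dye, 60 min RT. Test compound added after a 10 s baseline, fluorescence followed for 3 min. EC50 from 4-parameter fit; Emax given as % of serotonin effect.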
On the technique in general: Calcium flux is commonly read through the fluorescence of an indicator in the cells.

The target in experiment [2] is T2, 5HT2B receptors (Homo sapiens, UniProt P41595).
T2 construct: expressed in transfected cells; host or cells: CHO-K1 cells
The experiment can be described thus: Human 5-HT2B functional high throughput screening assay in CHO-K1 cells (calcium flux). The experiment is classed as cell-based. As to conditions: for pEC50: CHO-K1 cells, calcium flux. The gist of the method:
as §1

Setting [3] is: 5-HT2C agonist activity, read-out: EC50.
[4] abbreviates: 5-HT2B agonist activity, read-out: EC50.
Where [5] appears, read: 5-HT2B, maximum functional response as percentage relative to the effect of serotonin.

T2 sequence (P41595 whole entry): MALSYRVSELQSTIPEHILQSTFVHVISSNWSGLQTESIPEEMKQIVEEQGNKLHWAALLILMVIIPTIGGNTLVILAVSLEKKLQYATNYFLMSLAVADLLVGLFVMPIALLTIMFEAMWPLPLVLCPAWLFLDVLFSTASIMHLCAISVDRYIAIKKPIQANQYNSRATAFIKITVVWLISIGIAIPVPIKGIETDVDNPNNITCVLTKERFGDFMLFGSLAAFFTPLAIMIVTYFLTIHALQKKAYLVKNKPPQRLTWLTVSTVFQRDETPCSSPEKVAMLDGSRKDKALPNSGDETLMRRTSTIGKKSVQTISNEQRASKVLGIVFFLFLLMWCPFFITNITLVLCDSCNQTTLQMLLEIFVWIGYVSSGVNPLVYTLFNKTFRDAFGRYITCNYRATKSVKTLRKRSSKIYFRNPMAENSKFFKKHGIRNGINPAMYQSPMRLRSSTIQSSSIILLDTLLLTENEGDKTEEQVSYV

The Emax is the greatest response seen or fitted, relative to the assay's reference. The term pEC50 denotes −log10 of the EC50, conventionally taken in molar units. As for `O=S(=O)(c1ccccc1F)N1Cc2cccnc2[C@@H]2CNC[C@H]2C1` (relative stereo) [Example 361, Trans-6-[(2-fluorophenyl)sulfonyl]-5,6,7,7a,8,9,10,10a-octahydropyrido[3,2-c]pyrrolo[3,4-e]azepine], the Emax in experiment [1] and in experiment [2] (CHO-K1) was 80% in each case. Moreover, the pEC50 was 7.00 in experiment [1] (EC50, 5-HT2C agonist activity) and 6.52 in experiment [2] (EC50, 5-HT2B agonist activity).
For the molecule `Fc1cccc2c1OCC[C@H]1CNC[C@H]21` (relative stereo) [Example 281, Trans-7-fluoro-2,3,3a,4,5,10b-hexahydro-1H-[1]benzoxepino[4,5-c]pyrrole], the Emax in experiment [1] was determined as 100%; in experiment [2] (CHO-K1), 90%. In addition, the pEC50 in experiment [1] (EC50, 5-HT2C agonist activity) was 8.10; in experiment [2] (EC50, 5-HT2B agonist activity), 7.00.
For the molecule `Brc1cccc2c1OCC[C@H]1CNC[C@H]21` (relative stereo) [Example 383, Trans-7-bromo-2,3,3a,4,5,10b-hexahydro-1H-[1]benzoxepino[4,5-c]pyrrole], the values for the Emax in experiment [1] and in experiment [2] (CHO-K1) were 105% and 100%, respectively. Moreover, the pEC50 in experiment [1] (EC50, 5-HT2C agonist activity) was 10.40; in experiment [2] (EC50, 5-HT2B agonist activity) it was 8.22.
For `Cc1ccc(S(=O)(=O)N2Cc3cccnc3[C@@H]3CNC[C@H]3C2)cc1` (relative stereo) [Example 356, Trans-6-[(4-methylphenyl)sulfonyl]-5,6,7,7a,8,9,10,10a-octahydropyrido[3,2-c]pyrrolo[3,4-e]azepine], the values for the Emax in experiment [1] and in experiment [2] (CHO-K1) were 90% and 15%, respectively. Further, the pEC50 in experiment [1] (EC50, 5-HT2C agonist activity) is 7.40; in experiment [2] (EC50, 5-HT2B agonist activity), 6.00.
Take `CC(C)c1ccc(-c2ccc3c(c2)C(=O)NC[C@@H]2CN(C)C[C@@H]32)cc1` (relative stereo) [Example 138, Trans-8-(4-isopropylphenyl)-2-methyl-1,2,3,3a,4,5-hexahydrobenzo[e]pyrrolo[3,4-c]azepin-6(10bH)-one]: the pEC50 in experiment [1] (setting [3]) was 7.00; in experiment [2] (setting [4]), less than 5.00. Besides, the Emax in experiment [1] (read-out: Emax) was more than 120%; in experiment [2] (setting [5]) it was “inactive”.
For the molecule `COc1ccc(OC)c(S(=O)(=O)N2Cc3cccnc3[C@@H]3CNC[C@H]3C2)c1` (relative stereo) [Example 343, Trans-6-[(2,5-dimethoxyphenyl)sulfonyl]-5,6,7,7a,8,9,10,10a-octahydropyrido[3,2-c]pyrrolo[3,4-e]azepine], the results for the pEC50 in experiment [1] (setting [3]) and in experiment [2] (setting [4]) were 6.52 and 6.00, respectively. The Emax was found to be 85% in experiment [1] (read-out: Emax) and 60% in experiment [2] (CHO-K1, 5-HT2B, maximum functional response as percentage relative to the effect of serotonin, read-out: Emax).
Regarding `CN1C[C@@H]2CNC(=O)c3cc(-c4ccc5c(c4)C(O)CC5)ccc3[C@H]2C1` (stereo partly drawn) [Example 310, (3aS,10bS)-8-(3-Hydroxy-2,3-dihydro-1H-inden-5-yl)-2-methyl-2,3,3a,4,5,10b-hexahydropyrrolo[3,4-d][2]benzazepin-6(1H)-one], the pEC50 in experiment [1] (setting [3]) is 9.15; in experiment [2] (setting [4]) it was less than 5.00. Besides, the values for the Emax in experiment [1] (read-out: Emax) and in experiment [2] (setting [5]) were 100% and “inactive”, respectively.
With `CN1C[C@@H]2CNC(=O)c3cc(OCc4c(F)cccc4F)ccc3[C@H]2C1` [Example 209, (3aS,10bS)-8-(2,6-Difluorobenzyloxy)-2-methyl-1,2,3,3a,4,5-hexahydrobenzo[e]pyrrolo[3,4-c]azepin-6(10bH)-one], the pEC50 is 9.00 in experiment [1] (setting [3]) and less than 5.00 in experiment [2] (setting [4]). Besides, the values for the Emax in experiment [1] (read-out: Emax) and in experiment [2] (setting [5]) were more than 120% and “inactive”, respectively.
Regarding `CN1C[C@@H]2CNC(=O)c3cc(OCc4ccc(F)c(F)c4)ccc3[C@H]2C1` [Example 210, (3aS,10bS)-8-(3,4-Difluorobenzyloxy)-2-methyl-1,2,3,3a,4,5-hexahydrobenzo[e]pyrrolo[3,4-c]azepin-6(10bH)-one], the pEC50 is 8.70 in experiment [1] (setting [3]) and less than 5.00 in experiment [2] (setting [4]). Besides, the Emax in experiment [1] (read-out: Emax) is more than 120%; in experiment [2] (setting [5]), “inactive”.
For the molecule `CN1C[C@H]2CCN(C)c3ccc(Cl)cc3[C@@H]2C1` (relative stereo) [Example 395, Trans-9-chloro-2,6-dimethyl-1,2,3,3a,4,5,6,10b-octahydropyrrolo[3,4-d][1]benzazepine], the Emax worked out at 50% in experiment [1] and 65% in experiment [2] (CHO-K1). Moreover, the pEC50 in experiment [1] (EC50, 5-HT2C agonist activity) was 6.30; in experiment [2] (EC50, 5-HT2B agonist activity), 7.10.
In the case of `CN1C[C@H]2CNC(=O)c3cc(OCC4CCCCC4)ccc3[C@@H]2C1` (relative stereo) [Example 176, Trans-8-(cyclohexylmethoxy)-2-methyl-1,2,3,3a,4,5-hexahydrobenzo[e]pyrrolo[3,4-c]azepin-6(10bH)-one], the pEC50 was 6.70 in experiment [1] (setting [3]) and less than 5.00 in experiment [2] (setting [4]). For the same molecule, the results for the Emax in experiment [1] and in experiment [2] (setting [5]) were more than 120% and “inactive”, respectively.
The corresponding values for `CN1C[C@@H]2CNC(=O)c3cc(O)ccc3[C@H]2C1` [Example 200, (3aS,10bS)-8-Hydroxy-2-methyl-1,2,3,3a,4,5-hexahydrobenzo[e]pyrrolo[3,4-c]azepin-6(10bH)-one] are 6.30, less than 5.00, 55% and “inactive”.
As for `COc1ccc2c(c1)C(=O)NC[C@@H]1CN(Cc3ccccc3)C[C@H]21` (relative stereo) [Example 130, Cis-2-benzyl-8-methoxy-1,2,3,3a,4,5-hexahydrobenzo[e]pyrrolo[3,4-c]azepin-6(10bH)-one], the pEC50 in experiment [1] (setting [3]) is 6.05; in experiment [2] (setting [4]), less than 5.00. Moreover, the Emax in experiment [1] (read-out: Emax) was 100%; in experiment [2] (setting [5]), “inactive”.
For `COc1cc(OC)c2c(c1)C(=O)NC[C@@H]1CNC[C@@H]21` (relative stereo) [Example 100, Trans-8,10-dimethoxy-1,2,3,3a,4,5-hexahydrobenzo[c]pyrrolo[3,4-e]azepin-6(10bH)-one], the Emax in experiment [1] is more than 120%; in experiment [2] (CHO-K1) it was 70%. For the same molecule, the pEC50 in experiment [1] (EC50, 5-HT2C agonist activity) was 8.52; in experiment [2] (EC50, 5-HT2B agonist activity), 6.05.
Turning to `CC(C)c1cccc(-c2ccc3c(c2)C(=O)NC[C@@H]2CN(C)C[C@@H]32)c1` (relative stereo) [Example 379, Trans-8-(3-isopropylphenyl)-2-methyl-2,3,3a,4,5,10b-hexahydropyrrolo[3,4-d][2]benzazepin-6(1H)-one], the pEC50 in experiment [1] (setting [3]) is 8.30; in experiment [2] (setting [4]), less than 5.00. The values for the Emax in experiment [1] (read-out: Emax) and in experiment [2] (setting [5]) were 100% and “inactive”, respectively.
Consider `CN1C[C@@H]2CNC(=O)c3cc(-c4ccccn4)ccc3[C@H]2C1` [Example 388, (3aS,10bS)-2-Methyl-8-(pyridin-2-yl)-2,3,3a,4,5,10b-hexahydropyrrolo[3,4-d][2]benzazepin-6(1H)-one], for which the pEC50 in experiment [1] (setting [3]) was 6.52; in experiment [2] (setting [4]), less than 5.00. In addition, the maximal effect (Emax) was 90% in experiment [1] and “inactive” in experiment [2] (setting [5]).
Turning to `O=C1NC[C@@H]2CNC[C@H]2c2ccc(OCCc3ccccc3)cc21` (relative stereo) [Example 123, Trans-8-phenethoxy-1,2,3,3a,4,5-hexahydrobenzo[e]pyrrolo[3,4-c]azepin-6(10bH)-one], the Emax in experiment [1] was 120%; in experiment [2] (setting [5]) it was “inactive”. In addition, the pEC50 in experiment [1] (EC50, 5-HT2C agonist activity) was 8.00; in experiment [2] (EC50, 5-HT2B agonist activity), less than 5.00.
Turning to `COC(=O)c1ccc2c(c1)C(=O)NC[C@@H]1CN(Cc3ccccc3)C[C@@H]21` (relative stereo) [Example 129, Trans-methyl 2-benzyl-6-oxo-1,2,3,3a,4,5,6,10b-octahydrobenzo[e]pyrrolo[3,4-c]azepine-8-carboxylate], the values for the pEC50 in experiment [1] (setting [3]) and in experiment [2] (setting [4]) were 6.70 and less than 5.00, respectively. For the same molecule, the Emax in experiment [1] (read-out: Emax) was more than 120%; in experiment [2] (setting [5]) it was “inactive”.
On to `CN1C[C@H]2CNC(=O)c3cc(C=Cc4ccccc4)ccc3[C@@H]2C1` (relative stereo) [Example 85, Trans-2-methyl-8-styryl-1,2,3,3a,4,5-hexahydrobenzo[e]pyrrolo[3,4-c]azepin-6(10bH)-one], for which the negative-log EC50 (pEC50) was 6.92 in experiment [1] (setting [3]) and less than 5.00 in experiment [2] (setting [4]). Also, the maximum response (Emax) in experiment [1] (read-out: Emax) is 100%; in experiment [2] (setting [5]), “inactive”.
Consider `CN1C[C@H]2CNC(=O)c3cc(OCc4ccccc4F)ccc3[C@@H]2C1` (relative stereo) [Example 164, Trans-8-(2-fluorobenzyloxy)-2-methyl-1,2,3,3a,4,5-hexahydrobenzo[e]pyrrolo[3,4-c]azepin-6(10bH)-one], for which the pEC50 in experiment [1] (setting [3]) was 6.15; in experiment [2] (setting [4]) it was less than 5.00. In addition, the Emax is 50% in experiment [1] (read-out: Emax) and “inactive” in experiment [2] (setting [5]).
For `CC(C)c1ccc2c(c1)C(=O)NC[C@@H]1CN(C)C[C@@H]21` (relative stereo) [Example 196, Trans-8-isopropyl-2-methyl-1,2,3,3a,4,5-hexahydrobenzo[e]pyrrolo[3,4-c]azepin-6(10bH)-one], the pEC50 in experiment [1] (setting [3]) was 6.30; in experiment [2] (setting [4]), less than 5.00. The results for the Emax in experiment [1] and in experiment [2] (setting [5]) were 30% and “inactive”, respectively.
